Measured values published in patent publication US20250235455A1, “AQUEOUS TICAGRELOR SOLUTIONS, METHOD OF MANUFACTURING AND USES” (HYLORIS DEVELOPMENTS SA, priority 2022, published 2025).
Marks after values point to notes of the source that are not given here.

Assay: Solubility of ticagrelor in HPβCD (appearance on shaking platform)
Format: physicochemical
Protocol: In a first example two different types of cyclodextrin were used and compared for the solubilization of ticagrelor. An unbuffered stock solution of HPβCD or SBECD was made in water at the target concentrations of 20 w/w %, 25 w/w %, 30 w/w %, 35 w/w % and 40 w/w %. Ticagrelor was added slowly under vortex. Ticagrelor was used at concentrations of 5, 10 or 14 mg/ml in milli Q water. The ticagrelor-cyclodextrin solutions were left on a shaking platform. No sonification or heat was applied.

[1] = HPβCD 20% w/w, ticagrelor 5 mg/ml
[2] = HPβCD 20% w/w, ticagrelor 10 mg/ml
[3] = HPβCD 20% w/w, ticagrelor 14 mg/ml
[4] = HPβCD 25% w/w, ticagrelor 5 mg/ml
[5] = HPβCD 25% w/w, ticagrelor 10 mg/ml
[6] = HPβCD 25% w/w, ticagrelor 14 mg/ml
[7] = HPβCD 30% w/w, ticagrelor 5 mg/ml
[8] = HPβCD 30% w/w, ticagrelor 10 mg/ml
[9] = HPβCD 30% w/w, ticagrelor 14 mg/ml
[10] = HPβCD 35% w/w, ticagrelor 5 mg/ml
[11] = HPβCD 35% w/w, ticagrelor 10 mg/ml
[12] = HPβCD 35% w/w, ticagrelor 14 mg/ml
[13] = HPβCD 40% w/w, ticagrelor 5 mg/ml
[14] = HPβCD 40% w/w, ticagrelor 10 mg/ml
[15] = HPβCD 40% w/w, ticagrelor 14 mg/ml

CCCSc1nc(N[C@@H]2C[C@H]2c2ccc(F)c(F)c2)c2nnn([C@@H]3C[C@H](OCCO)[C@@H](O)[C@H]3O)c2n1 [Ticagrelor, (1S,2S,3R,5S)-3-{7-[(1R,2S)-2-(3,4-difluorophenyl)cyclopropylamino]5-(propylthio)-3H-(1,2,3)triazolo (4,5-D)pyrimidin-3-yl}-5-(2 hydroxyethoxy)cyclopentane-1,2-diol]
Appearance (5 mg/ml ticagrelor with 25, 30, 35 and 40 w/w % HPβCD): Clear | Appearance on standing (5 mg/ml, HPβCD 40%, 35% or 30% w/w in milliQ water, at least three days at room temperature and several days at 4° C.): remained clear | Appearance After 5 min of shaking [1]: − (translucent solution with precipitation) | Appearance After 30 min of shaking [1]: +/− | Appearance After 60 min of shaking [1]: +/− | Appearance After 3 h of shaking [1]: +/− | Appearance After overnight shaking [1]: − (translucent solution with precipitation) | Appearance After 5 min of shaking [2]: − (translucent solution with precipitation) | Appearance After 30 min of shaking [2]: − (translucent solution with precipitation) | Appearance After 60 min of shaking [2]: − (translucent solution with precipitation) | Appearance After 3 h of shaking [2]: − (translucent solution with precipitation) | Appearance After overnight shaking [2]: − (translucent solution with precipitation) | Appearance After 5 min of shaking [3]: − (translucent solution with precipitation) | Appearance After 30 min of shaking [3]: − (translucent solution with precipitation) | Appearance After 60 min of shaking [3]: − (translucent solution with precipitation) | Appearance After 3 h of shaking [3]: − (translucent solution with precipitation) | Appearance After overnight shaking [3]: − (translucent solution with precipitation) | Appearance After 5 min of shaking [4]: − (translucent solution with precipitation) | Appearance After 30 min of shaking [4]: +/− | Appearance After 60 min of shaking [4]: +/− | Appearance After 3 h of shaking [4]: +/− | Appearance After overnight shaking (HPβCD 25% w/w, ticagrelor 5 mg/ml, after one hour of sonication): +* (clear, appeared completely dissolved) | Appearance After 5 min of shaking [5]: − (translucent solution with precipitation) | Appearance After 30 min of shaking [5]: − (translucent solution with precipitation) | Appearance After 60 min of shaking [5]: − (translucent solution with precipitation) | Appearance After 3 h of shaking [5]: − (translucent solution with precipitation) | Appearance After overnight shaking [5]: − (translucent solution with precipitation) | Appearance After 5 min of shaking [6]: − (translucent solution with precipitation) | Appearance After 30 min of shaking [6]: − (translucent solution with precipitation) | Appearance After 60 min of shaking [6]: − (translucent solution with precipitation) | Appearance After 3 h of shaking [6]: − (translucent solution with precipitation) | Appearance After overnight shaking [6]: − (translucent solution with precipitation) | Appearance After 5 min of shaking [7]: − (translucent solution with precipitation) | Appearance After 30 min of shaking [7]: +/− | Appearance After 60 min of shaking [7]: +/− | Appearance After 3 h of shaking [7]: +/− | Appearance After overnight shaking [7]: + (clear, appeared completely dissolved) | Appearance After 5 min of shaking [8]: − (translucent solution with precipitation) | Appearance After 30 min of shaking [8]: − (translucent solution with precipitation) | Appearance After 60 min of shaking [8]: − (translucent solution with precipitation) | Appearance After 3 h of shaking [8]: − (translucent solution with precipitation) | Appearance After overnight shaking [8]: − (translucent solution with precipitation) | Appearance After 5 min of shaking [9]: − (translucent solution with precipitation) | Appearance After 30 min of shaking [9]: − (translucent solution with precipitation) | Appearance After 60 min of shaking [9]: − (translucent solution with precipitation) | Appearance After 3 h of shaking [9]: − (translucent solution with precipitation) | Appearance After overnight shaking [9]: − (translucent solution with precipitation) | Appearance After 5 min of shaking [10]: +/− | Appearance After 30 min of shaking [10]: +/− | Appearance After 60 min of shaking [10]: +/− | Appearance After 3 h of shaking [10]: +/− | Appearance After overnight shaking [10]: + (clear, appeared completely dissolved) | Appearance After 5 min of shaking [11]: − (translucent solution with precipitation) | Appearance After 30 min of shaking [11]: +/− | Appearance After 60 min of shaking [11]: +/− | Appearance After 3 h of shaking [11]: +/− | Appearance After overnight shaking [11]: + (clear, appeared completely dissolved) | Appearance After 5 min of shaking [12]: − (translucent solution with precipitation) | Appearance After 30 min of shaking [12]: +/− | Appearance After 60 min of shaking [12]: +/− | Appearance After 3 h of shaking [12]: +/− | Appearance After overnight shaking [12]: +/− | Appearance After 5 min of shaking [13]: + (clear, appeared completely dissolved) | Appearance After 30 min of shaking [13]: + (clear, appeared completely dissolved) | Appearance After 60 min of shaking [13]: + (clear, appeared completely dissolved) | Appearance After 3 h of shaking [13]: + (clear, appeared completely dissolved) | Appearance After overnight shaking [13]: + (clear, appeared completely dissolved) | Appearance After 5 min of shaking [14]: − (translucent solution with precipitation) | Appearance After 30 min of shaking [14]: +/− | Appearance After 60 min of shaking [14]: +/− | Appearance After 3 h of shaking [14]: +/− | Appearance After overnight shaking [14]: + (clear, appeared completely dissolved) | Appearance After 5 min of shaking [15]: − (translucent solution with precipitation) | Appearance After 30 min of shaking [15]: +/− | Appearance After 60 min of shaking [15]: +/− | Appearance After 3 h of shaking [15]: +/−
